KD data for one molecule are collected here from PMC12956279 (2026).

Assay in all cases: fluorescence titration (light-up), quadratic fit
Settings in all cases: 100 mM KCl, 1 mM MgCl2; 40 mM HEPES pH 7.4 (7.5 in Results), room temperature; 1 µM dye, DNA varied

The test system of test [1] is 11LE (11LE-v4) (DNA, aptamer) TCCTTCGCACAGCACACCTGCCGTATAGCTCTGAATCAAGGATTTTAGGGAGGCGATGGTGTCTTAGTAGGGATGATGCGGCAGTGGGCTTCGCAGAACAGTGTTTATTCTGCGAGGGGACTAAGACTCCTCCTCCTGCC
The subject of test [2] is FLE (FLE-v4) (DNA, aptamer) TCCTTCGCACAGCACACCTGCCGTATAGCTCTGAATCAAGGATTTTAGGGAGGCGATAACGTGCTCAAGGTGTCTTAGTAGGGATGATGCGGCAGTGGGCTTCGCAGAACAGTGTTTATTCTGCGAGGGGACTAAGACTCCTTCAGCAAGTTAAGCTCCTCCTGCC
Test [3] deals with 8LE-v4 (DNA, aptamer) TCCTTCGCACAGCACACCTGCCGTATAGCTCTGAATCAAGGATTTTAGGGAGGCGATGTCTTAGTAGGGATGATGCGGCAGTGGGCTTCGCAGAACAGTGTTTATTCTGCGAGGGGACTAAGACTCCTCCTGCC
In test [4] the test system is 4LE-v4 (DNA, aptamer) TCCTTCGCACAGCACACCTGCCGTATAGCTCTGAATCAAGGATTTTAGGGAGGCGATTAGTAGGGATGATGCGGCAGTGGGCTTCGCAGAACAGTGTTTATTCTGCGAGGGGACTATCCTCCTGCC

For the molecule `CC1=N/C(=C\c2cc(F)c(O)c(F)c2)C(=O)N1CC(F)(F)F`, the KD was 0.01 (0.01, 0.07, 95% CI) µM in test [1]; 0.07 (0.01, 0.16, 95% CI) µM in test [2]; 0.04 (0.01, 0.12, 95% CI) µM in test [3]; 6 (4.93, 7.18, 95% CI) µM in test [4].
